Measured values as given in PMC9090415, “Discovery of small molecule inhibitors of Plasmodium falciparum apicoplast DNA polymerase” (Journal of Enzyme Inhibition and Medicinal Chemistry, 2022).

Molecular target: P. falciparum apicoplast DNA polymerase (Pf-apPOL) (Plasmodium falciparum, UniProt Q8ILY1)
Experiment: Fluorescence-based high-throughput DNA polymerase assay (molecular beacon), primary screen and dose-response;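 on % inhibition ApPOL 90': test concentration in µM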;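 on % inhibition apPOL 180': test concentration in µM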
Format: biochemical
Details: for DNA Pol: 90 min, 10 µM; for IC50: supplemental file 2, sheet IC50 nontoxic compounds, Pf-apPOL
Outline: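 Single-point screening used 10 µM compound with 20 nM polymerase, 20 nM hairpin substrate and 6 µM dNTPs for 90 min at 25 °C. Confirmatory titrations (2.5–80 µM) followed fluorescence at three times, and IC50 was derived from a fit including a cooperativity term n.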

Sequence of P. falciparum apicoplast DNA polymerase (Pf-apPOL) (Q8ILY1 entry or part of it): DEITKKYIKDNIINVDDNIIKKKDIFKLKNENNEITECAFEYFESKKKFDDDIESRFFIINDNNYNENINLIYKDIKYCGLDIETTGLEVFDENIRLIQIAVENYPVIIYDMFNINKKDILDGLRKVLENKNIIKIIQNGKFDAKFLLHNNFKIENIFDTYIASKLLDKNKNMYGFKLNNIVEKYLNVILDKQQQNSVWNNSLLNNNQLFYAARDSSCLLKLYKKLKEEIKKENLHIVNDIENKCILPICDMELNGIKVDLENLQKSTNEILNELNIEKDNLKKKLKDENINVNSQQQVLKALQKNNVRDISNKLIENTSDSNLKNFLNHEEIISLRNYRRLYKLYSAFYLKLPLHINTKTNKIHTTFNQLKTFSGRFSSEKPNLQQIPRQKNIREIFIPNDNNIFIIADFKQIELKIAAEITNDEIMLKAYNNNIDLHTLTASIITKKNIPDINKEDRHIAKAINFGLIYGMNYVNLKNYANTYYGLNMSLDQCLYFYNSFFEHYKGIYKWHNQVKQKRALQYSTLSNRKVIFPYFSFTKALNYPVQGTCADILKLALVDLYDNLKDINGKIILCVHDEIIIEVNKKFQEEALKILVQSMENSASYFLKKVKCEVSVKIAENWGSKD

CCOc1ccc(/C=C2\N=C(c3cc([N+](=O)[O-])cc([N+](=O)[O-])c3)OC2=O)cc1 [Molecule 97, CCOc1ccc(cc1)/C=C/1\N=C(OC1=O)c1cc(cc(c1)N(=O)=O)N(=O)=O]
DNA Pol ('DNA Pol' of the 186 hits list (primary screen result), unit not given): 62 | % inhibition Apo pol 10' (DRC-1, concentration 2.5): 32.0109% | % inhibition Apo pol 10' (DRC-1, concentration 5): 55.2757% | % inhibition Apo pol 10' (DRC-1, concentration 10): 83.2599% | % inhibition Apo pol 10' (DRC-1, concentration 20): 91.8438% | % inhibition Apo pol 10' (DRC-1, concentration 40): 94.8761% | % inhibition Apo pol 10' (DRC-1, concentration 80): 92.0577% | % inhibition Apol 90' (DRC-1, 90', concentration 2.5): 15.0386% | % inhibition Apol 90' (DRC-1, 90', concentration 5): 31.639% | % inhibition Apol 90' (DRC-1, 90', concentration 10): 61.0945% | % inhibition Apol 90' (DRC-1, 90', concentration 20): 80.2984% | % inhibition Apol 90' (DRC-1, 90', concentration 40): 94.8535% | % inhibition Apol 90' (DRC-1, 90', concentration 80): 94.5175% | % inhibition apPOL 180' (DRC-1, 180', concentration 2.5): 6.537% | % inhibition apPOL 180' (DRC-1, 180', concentration 5): 16.2109% | % inhibition apPOL 180' (DRC-1, 180', concentration 10): 41.6227% | % inhibition apPOL 180' (DRC-1, 180', concentration 20): 66.1189% | % inhibition apPOL 180' (DRC-1, 180', concentration 40): 93.496% | % inhibition apPOL 180' (DRC-1, 180', concentration 80): 95.7221% | % inhibition Apol 40' (DRC-2, 40', concentration 20 (unit not given)): 68% | % inhibition Apol 40' (DRC-2, 40', concentration 40 (unit not given)): 76% | % inhibition Apol 40' (DRC-2, 40', concentration 80 (unit not given)): 76% | % inhibition ApPOL 90' (DRC-2, 90', concentration 20 (unit not given)): 68% | % inhibition apPOL 180' (DRC-2, 180', concentration 20 (unit not given)): 60% | % inhibition Apo pol 5' (DRC-2, concentration 2.5): 20% | % inhibition Apo pol 5' (DRC-2, concentration 5): 43% | % inhibition Apo pol 5' (DRC-2, concentration 10): 52% | % inhibition Apo pol 5' (DRC-2, concentration 20): 59% | % inhibition Apo pol 5' (DRC-2, concentration 40): 61% | % inhibition Apo pol 5' (DRC-2, concentration 80): 60% | % inhibition Apo pol 5' (DRC-2, concentration 80 (unit not given)): 60% | % inhibition Apol 40' (DRC-2, 40', concentration 2.5): 14% | % inhibition Apol 40' (DRC-2, 40', concentration 5): 38% | % inhibition Apol 40' (DRC-2, 40', concentration 10): 47% | % inhibition Apol 40' (DRC-2, 40', concentration 20): 68% | % inhibition Apol 40' (DRC-2, 40', concentration 40): 76% | % inhibition Apol 40' (DRC-2, 40', concentration 80): 76% | % inhibition ApPOL 90' (DRC-2, 90', concentration 2.5): 9% | % inhibition ApPOL 90' (DRC-2, 90', concentration 5): 33% | % inhibition ApPOL 90' (DRC-2, 90', concentration 10): 42% | % inhibition ApPOL 90' (DRC-2, 90', concentration 20): 68% | % inhibition ApPOL 90' (DRC-2, 90', concentration 40): 79% | % inhibition ApPOL 90' (DRC-2, 90', concentration 80): 80% | % inhibition apPOL 180' (DRC-2, 180', concentration 2.5): 2.15% | % inhibition apPOL 180' (DRC-2, 180', concentration 5): 19% | % inhibition apPOL 180' (DRC-2, 180', concentration 10): 28% | % inhibition apPOL 180' (DRC-2, 180', concentration 20): 60% | % inhibition apPOL 180' (DRC-2, 180', concentration 40): 81% | % inhibition apPOL 180' (DRC-2, 180', concentration 80): 84% | DNA Pol (primary screen value of the library well, unit not given): 62

O=C(O)C(=O)Nc1nc(-c2ccc3c(c2)OCCO3)cs1 [Molecule 82]
IC50: 40.5 µM

COc1ccc(C=C2Oc3c(ccc4c3CN(c3ccc5c(c3)OCO5)CO4)C2=O)cc1OC [KU0199426]
% inhibition Apo pol 10' (DRC-1, concentration 2.5): 6.7092% | % inhibition Apo pol 10' (DRC-1, concentration 5): 10.8011% | % inhibition Apo pol 10' (DRC-1, concentration 10): 30.1784% | % inhibition Apo pol 10' (DRC-1, concentration 20): 49.962% | % inhibition Apo pol 10' (DRC-1, concentration 40): 63.2111% | % inhibition Apo pol 10' (DRC-1, concentration 80): 69.0086% | % inhibition Apol 90' (DRC-1, 90', concentration 2.5): 9.888% | % inhibition Apol 90' (DRC-1, 90', concentration 5): 17.5134% | % inhibition Apol 90' (DRC-1, 90', concentration 10): 37.0525% | % inhibition Apol 90' (DRC-1, 90', concentration 20): 55.1818% | % inhibition Apol 90' (DRC-1, 90', concentration 40): 69.2799% | % inhibition Apol 90' (DRC-1, 90', concentration 80): 72.5355% | % inhibition apPOL 180' (DRC-1, 180', concentration 2.5): 14.753% | % inhibition apPOL 180' (DRC-1, 180', concentration 5): 23.9693% | % inhibition apPOL 180' (DRC-1, 180', concentration 10): 43.333% | % inhibition apPOL 180' (DRC-1, 180', concentration 20): 61.4424% | % inhibition apPOL 180' (DRC-1, 180', concentration 40): 79.6981% | % inhibition apPOL 180' (DRC-1, 180', concentration 80): 86.1468% | % inhibition Apo pol 5' (DRC-2, concentration 2.5): 6.46% | % inhibition Apo pol 5' (DRC-2, concentration 5): 7.39% | % inhibition Apo pol 5' (DRC-2, concentration 10): 27% | % inhibition Apo pol 5' (DRC-2, concentration 20): 45% | % inhibition Apo pol 5' (DRC-2, concentration 40): 42% | % inhibition Apo pol 5' (DRC-2, concentration 80): 45% | % inhibition Apol 40' (DRC-2, 40', concentration 2.5): 6% | % inhibition Apol 40' (DRC-2, 40', concentration 5): -2.71% | % inhibition Apol 40' (DRC-2, 40', concentration 10): 30% | % inhibition Apol 40' (DRC-2, 40', concentration 20): 63% | % inhibition Apol 40' (DRC-2, 40', concentration 40): 43% | % inhibition Apol 40' (DRC-2, 40', concentration 80): 44% | % inhibition ApPOL 90' (DRC-2, 90', concentration 2.5): 4.67% | % inhibition ApPOL 90' (DRC-2, 90', concentration 5): -12% | % inhibition ApPOL 90' (DRC-2, 90', concentration 10): 27% | % inhibition ApPOL 90' (DRC-2, 90', concentration 20): 69% | % inhibition ApPOL 90' (DRC-2, 90', concentration 40): 41% | % inhibition ApPOL 90' (DRC-2, 90', concentration 80): 43% | % inhibition apPOL 180' (DRC-2, 180', concentration 2.5): -0.788% | % inhibition apPOL 180' (DRC-2, 180', concentration 5): -86% | % inhibition apPOL 180' (DRC-2, 180', concentration 10): 16% | % inhibition apPOL 180' (DRC-2, 180', concentration 20): 76% | % inhibition apPOL 180' (DRC-2, 180', concentration 40): 34% | % inhibition apPOL 180' (DRC-2, 180', concentration 80): 39% | % inhibition Apo pol 5' (conc. 10, DRC-2): 27% | % inhibition ApPOL 90' (conc. 10, 90', DRC-2): 27% | % inhibition Apo pol 5' (conc. 20, DRC-2): 45% | % inhibition Apol 40' (conc. 40, 40', DRC-2): 43% | % inhibition Apo pol 5' (conc. 80, DRC-2): 45% | % inhibition ApPOL 90' (conc. 80, 90', DRC-2): 43% | DNA Pol (primary screen value by plate and well): 28 | DNA Pol (primary screen value of the 186 hits, unit not given): 28

CCCCC(=O)N1CCc2c(nc3cc(-c4ccccc4Cl)[nH]n3c2=O)C1 [Molecule 37]
IC50: 10.4 µM

N#CC(C#N)=C1SCN(c2cccc(Cl)c2)CS1 [Molecule 29, N#CC(=C1SCN(CS1)c1cccc(c1)Cl)C#N]
DNA Pol ('DNA Pol' of the 186 hits list (screen value)): 95 | % inhibition Apo pol 10' (DRC-1, conc 2.5): 21.8228% | % inhibition Apo pol 10' (DRC-1, conc 5): 35.73% | % inhibition Apo pol 10' (DRC-1, conc 10): 36.478% | % inhibition Apo pol 10' (DRC-1, conc 20): 90.158% | % inhibition Apo pol 10' (DRC-1, conc 40): 91.3949% | % inhibition Apo pol 10' (DRC-1, conc 80): 94.8229% | % inhibition Apol 90' (DRC-1, 90', conc 2.5): 12.5059% | % inhibition Apol 90' (DRC-1, 90', conc 5): 27.1845% | % inhibition Apol 90' (DRC-1, 90', conc 10): 28.2977% | % inhibition Apol 90' (DRC-1, 90', conc 20): 85.5173% | % inhibition Apol 90' (DRC-1, 90', conc 40): 87.9667% | % inhibition Apol 90' (DRC-1, 90', conc 80): 95.5447% | % inhibition apPOL 180' (DRC-1, 180', conc 2.5): 2.521% | % inhibition apPOL 180' (DRC-1, 180', conc 5): 13.8215% | % inhibition apPOL 180' (DRC-1, 180', conc 10): 15.4746% | % inhibition apPOL 180' (DRC-1, 180', conc 20): 81.5285% | % inhibition apPOL 180' (DRC-1, 180', conc 40): 85.2905% | % inhibition apPOL 180' (DRC-1, 180', conc 80): 94.962% | % inhibition Apo pol 5' (DRC-2, conc 2.5): 14% | % inhibition Apo pol 5' (DRC-2, conc 5): 34% | % inhibition Apo pol 5' (DRC-2, conc 10): 45% | % inhibition Apo pol 5' (DRC-2, conc 20): 55% | % inhibition Apo pol 5' (DRC-2, conc 40): 60% | % inhibition Apo pol 5' (DRC-2, conc 80): 60% | % inhibition Apo pol 5' (DRC-2, concentration 40): 60% | % inhibition Apo pol 5' (DRC-2, concentration 80): 60% | % inhibition Apol 40' (DRC-2, 40', conc 2.5): 20% | % inhibition Apol 40' (DRC-2, 40', conc 5): 42% | % inhibition Apol 40' (DRC-2, 40', conc 10): 56% | % inhibition Apol 40' (DRC-2, 40', conc 20): 65% | % inhibition Apol 40' (DRC-2, 40', conc 40): 73% | % inhibition Apol 40' (DRC-2, 40', conc 80): 76% | % inhibition Apol 40' (DRC-2, 40', concentration 10): 56% | % inhibition Apol 40' (DRC-2, 40', concentration 40): 73% | % inhibition ApPOL 90' (DRC-2, 90', conc 2.5): 17% | % inhibition ApPOL 90' (DRC-2, 90', conc 5): 41% | % inhibition ApPOL 90' (DRC-2, 90', conc 10): 56% | % inhibition ApPOL 90' (DRC-2, 90', conc 20): 66% | % inhibition ApPOL 90' (DRC-2, 90', conc 40): 75% | % inhibition ApPOL 90' (DRC-2, 90', conc 80): 79% | % inhibition ApPOL 90' (DRC-2, 90', concentration 10): 56% | % inhibition apPOL 180' (DRC-2, 180', conc 2.5): 10% | % inhibition apPOL 180' (DRC-2, 180', conc 5): 31% | % inhibition apPOL 180' (DRC-2, 180', conc 10): 48% | % inhibition apPOL 180' (DRC-2, 180', conc 20): 62% | % inhibition apPOL 180' (DRC-2, 180', conc 40): 73% | % inhibition apPOL 180' (DRC-2, 180', conc 80): 81% | % inhibition apPOL 180' (DRC-2, 180', concentration 40): 73% | DNA Pol (primary screen value, "DNA Pol"): 95
